# Laboratory results published in US8519184B2, “Synthesis of rare earth metal extractant” (Shin-Etsu Chemical Co., Ltd., priority 2010, dated 2013).
# Experiments:
# [1] = cited from earlier work
# [2] = Extractant state of reaction product; assay type: physicochemical; conditions: Table 2; reaction product at varied B/A (dioctylamine/diglycolic anhydride)
# Experimental: An amount (designated A in Table 2) of diglycolic anhydride was suspended in 40 mL of hexane. Separately, an amount (designated B in Table 2) of dioctylamine was dissolved in 10 mL of hexane. With stirring, the dioctylamine solution was added dropwise to the diglycolic anhydride suspension. Stirring was continued at room temperature until it was confirmed that the solution became clear as a result of reaction of diglycolic anhydride. The reaction product was obtained in hexane solution. Table 2 also reports a ratio B/A that is a ratio of the amount (B mmol) of dioctylamine to the amount (A mmol) of diglycolic anhydride.
# An aqueous solution containing mixed rare earth metals was prepared by dissolving praseodymium chloride and neodymium chloride in water in a molar ratio Pr:Nd of 1:1 and a concentration of 0.1 mol/L of Pr+Nd to form an aqueous solution, which might become an aqueous phase. A separatory funnel was charged with 100 mL of the organic solution and 100 mL of the aqueous solution and shaken at 20° C. for about 20 minutes to effect extraction. After equilibrium was reached, the liquid was allowed to separate into organic and aqueous phases. A separatory funnel was charged with 100 mL of the thus separated organic phase and 100 mL of 5N hydrochloric acid and shaken at 20° C. for about 20 minutes whereby the rare earth element once extracted into the organic phase was back-extracted into the aqueous hydrochloric acid solution. The concentrations of praseodymium and neodymium in the aqueous phase and the back-extracted aqueous hydrochloric acid solution were measured by an ICP atomic emission spectrometer ICP-7500 (Shimadzu Corp.).
# [3] = Extraction/separation test (solvent extraction, Nd/Pr); conditions: 20° C.
# Experimental: An extraction/separation test was performed. […] The reaction product solution was diluted with hexane to form an organic solution having a DODGAA concentration of 0.3 mol/L, which might become an organic phase.
# An extraction/separation test was performed. The concentration of DODGAA in the reaction product solution was computed from the amounts of reactants and synthesis medium. The reaction product solution was diluted with hexane to form an organic solution having a DODGAA concentration of 0.3 mol/L, which might become an organic phase. […]
# An aqueous solution containing mixed rare earth metals was prepared by dissolving praseodymium chloride and neodymium chloride in water in a molar ratio Pr:Nd of 1:1 and a concentration (mol/L) of Pr+Nd as shown in Table 4 to form an aqueous solution which might become an aqueous phase. […] The concentrations of praseodymium and neodymium in the aqueous phase and the back-extracted aqueous hydrochloric acid solution were measured by an ICP atomic emission spectrometer ICP-7500 (Shimadzu Corp.).
# [4] = Table 1, DODGAA 0.3 mol/L in hexane organic phase, Pr+Nd 0.1 mol/L aqueous, about 20 minutes
Compound,Extractant state [2],other results
"CCCCCCCCN(CCCCCCCC)C(=O)COCC(=O)O [DODGAA, N,N-dioctyl-3-oxapentane-1,5-amic acid]",,solubility in water [1]: 6.2 µM
"CCCCCCCCN(CCCCCCCC)C(=O)COCC(=O)O [Comparative Example 2, N,N-dioctyl-3-oxapentane-1,5-amic acid]",liquid,
"CCCCCCCCN(CCCCCCCC)C(=O)COCC(=O)O [Example 2, N,N-dioctyl-3-oxapentane-1,5-amic acid]",liquid,
"CCCCCCCCN(CCCCCCCC)C(=O)COCC(=O)O [Example 5, N,N-dioctyl-3-oxapentane-1,5-amic acid]",solid,
"CCCCCCCCN(CCCCCCCC)C(=O)COCC(=O)O [Example 4, N,N-dioctyl-3-oxapentane-1,5-amic acid]",liquid,
"CCCCCCCCN(CCCCCCCC)C(=O)COCC(=O)O [Example 1, N,N-dioctyl-3-oxapentane-1,5-amic acid]",,"Nd/Pr separation factor [3, 4]: satisfactory"
"CCCCCCCCN(CCCCCCCC)C(=O)COCC(=O)O [Example 3, N,N-dioctyl-3-oxapentane-1,5-amic acid]",liquid,"Nd/Pr separation factor ([3]; Table 2, varied B/A, DODGAA 0.3 mol/L in hexane, Pr+Nd 0.1 mol/L): satisfactory"
"CCCCCCCCN(CCCCCCCC)C(=O)COCC(=O)O [Comparative Example 1, N,N-dioctyl-3-oxapentane-1,5-amic acid]",,"Nd/Pr separation factor [3, 4]: satisfactory"
